Assay results published in patent US5733908A, “Tetracyclic 1,4-oxazine compounds” (Adir Et Compagnie, priority 1995, dated 1998).

Test system: male Wistar rats, hypothermia induced by the D3 dopaminergic agonist 7-OH-DPAT
Assay: Hypothermia in the rat induced by the D3 agonist 7-OH-DPAT (reversal test)
Format: in vivo
Settings: for ΔT°C. (rectal temperature vs base values): measured 30 min after, mean ± sem, n ≥ 5
Description: That selectivity makes the compounds of the present invention valuable especially for use as medicaments that act on the dopaminergic system without causing the undesirable effects of D2 ligands.
In vivo: by the capacity of the products of the invention to modulate hypothermia induced in the rat by the D3 dopaminergic agonist: 7-OH-DPAT.
1.2 In vivo - Hypothermia in the rat
The tests were carded out on male Wistar rats weighing 200-250 g placed in individual cages with free access to food and water. The products were dissolved in distilled water to which several drops of lactic acid are added. The injections were effected in a volume of 1.0 ml/kg by the subcutaneous route. The doses are expressed in terms of the base. The rectal temperature of the rats was recorded using a digital thermistoprobe (Millan et al, I.P.E.T., 1993, 264, p. 1364-1376). During a first period, the rats were injected with the compound to be tested or the carrier, and were then put back in their cages for 30 minutes. The rats were then given an injection of 7-OH-DPAT (0.16 mg/kg) and were placed in their cages again. Thirty minutes later, the rectal temperature was measured and the difference was determined by comparison with the base values (.increment.T° C.). The inhibitory dose (95 % confidence limits) for reducing the effect of the 7-OH-DPAT by 50 % was calculated according to the Finney method (Statistical Method in Biological Assays, 2nd ed., Hafner Publishing, New York, 1964).

SMILES	ED50 (Rattus norvegicus, sc, 7-OH-DPAT 0.16 mg/kg, Finney method, 95 % confidence limits in brackets, read-out: inhibitory dose (ID50) (95 % C.L.) for reducing the effect of 7-OH-DPAT by 50 %)	ΔT°C. (rectal temperature vs base values) (injection 1: product 0.16 mg/kg s.c., injection 2: 7-OH-DPAT 0.16 mg/kg 30 min later)	ΔT°C. (rectal temperature vs base values) (injection 1: carrier, injection 2: 7-OH-DPAT 0.16 mg/kg s.c.)
CCCN1CCO[C@@H]2c3cc4c(cc3CC[C@H]21)CCS4 (relative stereo) [Example 2, Trans-3,4,4a,5,6,8,9,11b-octahydrothieno[2,3-b]-1,4-oxazino[3,2-h]-4-propyl-2H-naphthalene]	0.41 mg/kg	-1.48 ± 0.44 °C	–
CCCN(CCC)C1CCc2ccc(O)cc2C1 (stereo not drawn) [Example 7-OH-DPAT, reference compound]	–	–	-1.66 ± 0.07 °C
